Data as given in a melting point compilation (Tetko et al.; mined from patent text by program, amines drawn as free bases though some values may be those of a salt).

Row | Compound | melting point
1 | COc1ccc(N2CCN(c3c(C)c(C)c4c(c3C)C(OCc3ccc(C)cc3)C(C)(C)O4)CC2)cc1 (stereo not given) | 84 to 85 °C
2 | O=C(O)/C=C/c1oc(-c2ccccc2)nc1-c1ccc(Cl)cc1 | 255 to 257 °C
3 | CN(CCO)Cc1cc(C(=O)c2ccc(Cl)cc2)cc(C(C)(C)C)c1O | 126 to 127 °C
4 | CS(=O)(=O)c1ccc(-c2cnn(-c3cccc(Cl)c3)c(=O)c2Oc2ccccc2)cc1 | 205 to 207 °C
5 | CC(C)Oc1ccc(OCc2ccccc2)cc1-c1nc2ccc(CO)nc2[nH]1 | 167 to 168 °C
6 | Nc1ncnc2sc(Cc3ccncc3)c(-c3ccc(NC(=O)Nc4cccc(C(F)(F)F)c4)cc3)c12 | 162 to 166 °C
7 | Cc1cc(Oc2ccnc(OC(F)F)c2)nc(Oc2ccnc(OC(F)F)c2)c1 | 60 to 65 °C
8 | CCN(c1nc(C)cc(C)n1)c1ccc(N(C)C(C)=O)cc1SC | 158 to 160 °C
9 | CCN(CC)CCSC1=C(C#N)C(c2ccccc2)(c2cccnc2)C(=O)N1 (stereo not given) | 133 °C
10 | COc1ccc(OC)c(C(O)CNC(=O)CN)c1 (stereo not given) | 106 to 107 °C
11 | COc1ccc(CS[C@@H]2C[C@@H](COc3ccccc3)N(S(C)(=O)=O)C2)cc1 | 92 to 94 °C
12 | CC1(C)CCC(C)(C)C2=C1CC(C(=O)O)C2 | 125 to 129 °C
13 | CC(C)(C)c1cc(CON2C(=O)COc3ccc(C=C4SC(=S)NC4=O)cc32)cc(C(C)(C)C)n1 | > 300 °C
14 | CCN(CC)CCCNC(=S)N(CCS(=O)(=O)c1ccccc1)C(C)C | 120 to 121 °C
15 | Cc1c(C=Cc2ccccc2)cccc1[N+](=O)[O-] | 75.9 °C
16 | CCOc1nn2c(-c3ccccc3)nnc2c2ccccc12 | 172 to 173 °C
17 | COc1on(C)c(=O)c1-c1ccccc1COc1ccccc1C | 90 to 92 °C
18 | CCCc1ncc(/C=C(\Cc2cccs2)C(=O)O)n1Cc1ccccc1Cl | 200 °C
19 | CC(C)(C)OC(=O)N[C@@H](Cc1ccc(OS(=O)(=O)C(F)(F)F)cc1)C(=O)OC(c1ccccc1)c1ccccc1 | 110 to 112 °C
20 | COc1nc(C(F)(F)F)c(F)c(=O)n1-c1cc(C(=O)OC(C)C)c(Cl)cc1F | 104 to 106 °C
21 | OCCCc1ccc(O)cc1 | 52 to 54 °C

Row | Compound | melting point
22 | CC(C)n1nc(-c2c(-c3ccccc3)nc(N)nc2N(C)C)ccc1=O | 293 to 296 °C
23 | COc1cc2c(cc1C)C1(CO2)C(=O)Nc2ccccc21 (stereo not given) | > 250 °C
24 | Cc1cc2ccncc2c(=N)c2ccccc12 | 165 to 168 °C
25 | CCOCc1c2c(n(Cc3ccccc3)c1-c1ccccc1)C(C)CN(Cc1ccccc1)C2 (stereo not given) | 96 to 98 °C
26 | BrCCCSc1ccc2ncnn2n1 | 133 to 135 °C
27 | COC(=O)N(C)CCc1ccc([N+](=O)[O-])c(CS(=O)(=O)c2ccccc2)c1 | 42 °C
28 | CC#CCOc1ccc(SC(CCCCCC)C(=O)O)cc1 (stereo not given) | 125 °C
29 | COC(=O)CSCc1sccc1S(=O)(=O)N(C)c1cccc2cc(-c3nccs3)[nH]c12 | 126 °C
30 | O=C(Cc1ccc(Cl)c(Cl)c1)N1CCN(Cc2ccccc2)CC1CO (stereo not given) | 148 to 150 °C
31 | CC(C)(C)OC(=O)NCCCn1c(-c2ccc([N+](=O)[O-])cc2)csc1=Nc1ccccc1 | 254 to 257 °C
32 | CCC(=O)NCCCC(=O)O | 85 to 90 °C
33 | O=c1[nH][nH]c(=O)c2c(O)c3ccc(C(F)(F)F)cc3nc12 | 170 to 172 °C
34 | CCCNc1cc(C(=O)O)cc(S(N)(=O)=O)c1Oc1ccccc1 | 223 to 224 °C
35 | CC(=O)Nc1ccc(NCC(=O)C23CC4CC(CC(C4)C2)C3)cc1 | 156 to 158 °C
36 | CCOC(=O)c1cn(C2CC2)c2cc(-c3cc(C)nc(CO)c3)c(F)cc2c1=O | 240 °C
37 | NC1C=CC=CN1NS(=O)n1ccnc1 (stereo not given) | 174 to 175 °C
38 | C=Cc1ccc(S(=O)(=O)On2nnc3ccc(C=C)cc32)cc1 | 85 to 87 °C
39 | CN(C(=O)c1ccc(Cl)c(Cl)c1)C1CCN(C)C12CCCCC2 (stereo not given) | 138 to 140 °C
40 | CC(=O)c1cccc2c1OC1(CC1)C2=O | 114 to 115 °C
41 | CC(C)(C)OC(=O)CN(Cc1ccccn1)c1cc(C(F)(F)F)c(Br)c(C(F)(F)F)c1 | 77 to 78 °C
42 | CCCC=Cc1c(C(C)C)nc(C(C)C)c(CO)c1-c1ccc(-c2ccccc2)cc1 | 50 to 52 °C

Row | Compound | melting point
43 | CC1(C)CC(S(=O)(=O)C(F)c2c(F)cccc2F)=NO1 (stereo not given) | 88 °C
44 | COc1cc(C(CCC(C(=O)O)c2cc(OC)c(OC)c(OC)c2)C(=O)O)cc(OC)c1OC (stereo not given) | 226 to 233 °C
45 | Cc1ccc(-c2nc(CCCC#N)c(C(F)(F)F)o2)cc1 | 41 to 42.5 °C
46 | COC(=O)c1cc(C)c(-c2cccc(O)c2C)c(C)c1 | 149 °C
47 | Cc1cn(CC(Br)C(=O)N(C)C)nc1-c1ccccc1 (stereo not given) | 104 to 107 °C
48 | COc1ccc(COC(=O)NCCc2c[nH]c3ccccc23)cc1 | 108 to 109 °C
49 | ClCc1coc(Cc2ccccc2)n1 | 31 to 32 °C
50 | COc1cc2ccccc2cc1C(=O)NNC(=O)c1cc2ccccc2cc1OC | 260 to 263 °C
51 | CC(CCl)=NNC1=Nc2ccc(Cl)cc2C(c2ccccc2)=NC1 | 210 to 227 °C
52 | Cc1ccc2c(c1)C=Cc1ncccc1C2c1cn(C)c(=O)[nH]c1=S (stereo not given) | 157 to 160 °C
53 | CC(C)C1COC(c2ccccc2CO)=N1 (stereo not given) | 62 to 72 °C
54 | OCC1CCC(O)C1O (stereo not given) | 157 to 159 °C
55 | CC(=O)OC(C)(C)C(=O)Nc1c(C(=O)c2ccccc2)[nH]c2cc(Cl)ccc12 | 162 to 165 °C
56 | COc1ccc(C(=O)c2ccc(OCc3nc(-c4ccccc4)oc3C)nc2)c(OC(C)C(=O)O)c1 (stereo not given) | 162 to 163 °C
57 | CN(C)c1ccc(NC(=O)N2CCC(Nc3nccc(-c4c(-c5ccc(F)cc5)nc5occn45)n3)CC2)cc1 | 225 to 227 °C
58 | O=C1COc2ccc3ccccc3c21 | 194 to 196 °C
59 | CC(=O)c1nn(C)c2ccccc12 | 86 to 88 °C
60 | O=C(N[C@@H](Cc1c[nH]c2ccccc12)C(=O)O)c1ccc(Br)cc1 | 162 to 163 °C
61 | CC(=O)c1sc(=O)[nH]c1C | 208 to 211 °C
62 | CC(C)N(CCN1C(=O)C(=O)c2cc(Br)ccc21)C(C)C | 91 to 93 °C

Second part, the molecule after the results:

Row | melting point | Compound
63 | > 340 °C | O=C1NCc2c1c1c(c3[nH]c4ccccc4c23)Cc2ccc(Br)cc2-1
64 | 210 to 212 °C | OC1(C2CC2)c2ccccc2OCc2ncccc21 (stereo not given)
65 | 86 to 87 °C | CC(C)N(C)c1ncc(C2CC2(C)C(N)=O)cc1Cl (stereo not given)
66 | 118 to 126 °C | COc1ccc2c(c1)CCC1CCNC(=O)C(CC(C)NC(C)C)=C21 (stereo not given)
67 | 75 °C | ClCCCc1cc2cccnc2[nH]1
68 | 274 to 275 °C | CCOC(=O)c1nnc2ccc(NS(C)(=O)=O)cc2c1O
69 | 240 to 242 °C | CCC(C)(C)c1cc(-c2cccc(CC3SC(N4CCOCC4)=NC3=O)n2)ccc1O (stereo not given)
70 | 188 to 190 °C | CC(F)(F)C1(O)c2cc(Cl)ccc2Nc2ncccc21 (stereo not given)
71 | 99.5 to 100 °C | O=C(CN(C(=O)CCl)C1Cc2ccccc2C1)OCc1ccccc1
72 | 179 to 181 °C | NC(=O)c1sc2nc(N3CCC(NCC(O)c4cccnc4)CC3)cc(C(F)(F)F)c2c1N (stereo not given)
73 | 200 to 202 °C | Nc1c(Cl)cc(Cn2nc(-c3ccc(Cl)c(Cl)c3)oc2=O)c(O)c1Cl
74 | 74 to 75 °C | Clc1cc2c(nn1)CCCCC2
75 | 224 to 230 °C | CC1Cc2cc(O)c(Cl)c(Cl)c2C1=O (stereo not given)
76 | 172 to 175 °C | CC(C)(C)c1nc2cc(N3CCCCC3)c(N)cc2s1
77 | 160 to 162 °C | O=C(c1ccccc1)c1cnn2c(-c3cccc(N4CCCCC4=O)c3)ccnc12
78 | > 220 °C | Clc1ccnc2[nH]c3ccc(Br)cc3c12
79 | 133 to 135 °C | Nc1ccc(C(=O)c2cccc3c2NCC3)cc1
80 | 227 to 228 °C | Cc1cc2c(cc1C1=NNC(=O)CC1)N(C)C(=O)CO2
81 | 117 °C | O=C(c1cccc(Cl)c1)c1cccc(Cl)c1
82 | 94 to 95 °C | CO/C=C(/C(=O)OC)c1ccccc1Oc1cc(Cl)ncn1
83 | 153 to 155 °C | Nc1cccnc1Nc1cc(Cl)ccc1C(=O)c1ccccc1
84 | 189 to 191 °C | S=C(NCc1cccc(Cl)c1)N1CCc2c([nH]c3ccccc23)C1c1ccc2c(c1)OCO2 (stereo not given)

Row | melting point | Compound
85 | 92 to 94 °C | C=CCSCC(O)(Cn1cncn1)c1ccc(Cl)cc1Cl (stereo not given)
86 | 168 °C | O=S(=O)(c1ccc2c(Cl)cnc(Cl)c2c1)N1CCC[C@@H]1CO
87 | 203 to 204 °C | CCCn1c(N)c(NC(=O)C2(NC(=O)C(F)(F)F)CCCC2)c(=O)n(CCC)c1=O
88 | 198 °C | NN1C=Nc2ccc(Cl)cc2C1(O)c1ccccc1Cl (stereo not given)
89 | 132 °C | Cc1cccc(-n2cc(-c3ccc4c(c3)N(C(=O)CN3CCN(C)CC3)CCO4)nn2)n1
90 | 150 °C | CN1CCN(C(=O)CCOC2c3ccccc3C(=O)N2c2ccc3ccc(Cl)nc3n2)CC1 (stereo not given)
91 | 200 to 220 °C | CC(=O)NCCn1c(O)nc2ccc(Cl)nc21
92 | 118 to 122 °C | c1cncc(CSc2nnc(-c3ccc4c(c3)CCO4)o2)c1
93 | 142 to 144 °C | CCCc1nn(C)c2c(OCCOc3ccc(CC(OCC)C(=O)O)cc3)nc(C)nc12 (stereo not given)
94 | 98 to 99 °C | Cc1csc(C2CCN(CCCC(O)c3ccc(F)cc3)CC2)n1 (stereo not given)
95 | 220 °C | O=c1nc(-c2cccc(Cl)c2)c2cc(C3(c4ccc(Cl)cc4)OCCO3)ccc2[nH]1
96 | > 300 °C | CSc1cnc2cc(-c3cccc(Cl)c3)sc2c1O
97 | 206 °C | N#Cc1cc(NC(=O)c2cc3ccccc3s2)ccc1OC1CCN(Cc2ccccc2)CC1
98 | 168 to 170 °C | O=C(O)c1cccc(N2CCc3ccccc32)c1
99 | 68 to 69 °C | CCCC(C)(CCl)c1cc(Cl)nnc1Cl (stereo not given)
100 | 138 to 139 °C | COc1cccc2cc(C)c(C)nc12
101 | 109 to 110 °C | CCOC(=O)C(C#N)=Cc1ccc(OC)c(OC2CCCC2)c1
102 | 248 °C | CSc1nc(O)c2c(n1)CCCS2
103 | > 300 °C | CC1COc2c(N3CCSCC3)c(F)cc3c(=O)c(C(=O)O)cn1c23 (stereo not given)
104 | 98 to 100 °C | O=[N+]([O-])c1cc([N+](=O)[O-])c(OCCO)cc1Cl
105 | 106 °C | Cc1cccc(CC(=O)c2ccnc(-c3ccc(C(=O)N4CCOCC4)cc3)c2)n1
